Experimental data taken from patent publication US20060199862A1, “Method for enhancing cognitive function” (priority 2005, published 2006).
Read-outs that look alike come from different tables or passages of the source.

What was measured:
[1] = tested on: rats with chronic cerebral ischemia induced by chronic bilateral ligation of common carotid arteries; settings: for Latency, s Post-shock / Latency, s Pre-shock: test on day 8 since ligation, mean±SD, n=8; for Latency, s Post-shock: 24 hours after the shock
Protocol: The effect of the compound of the formula (I) on cognitive function was assessed in rats with chronic cerebral ischemia induced by chronic bilateral ligation of common carotid arteries. The ligation was made in Wistar male rats 3 hours prior the first injection of the compound of the formula (I) or saline. Rats were injected i.p. with 1 mg/kg or 50 mg/kg the compound of the formula (I) or saline (control) for 7 days singly a day. Passive avoidance step-through paradigm test (short-term learning) was made on day 8th since the ligation. The pre-shock and post-shock latency time was used as an index of cognitive impairments. […] Data are presented in table 1 as the latency time mean±SD (n=8).

[2] = tested on: rats with cognitive impairments induced by amyloid injection (A-beta 25-35 in nucleus basalis magnocellularis); settings: for Number of visits Repeated (to the same arm) / Number of visits Total (visited arms): Y-maze 5 min, next day after last injection, mean±SD, n=8
Protocol: Beta-amyloid 25-35 (A-beta 25-35) was injected in nucleus basalis magnocellularis (NBM) of rats to induce model of cognitive impairments relevant to human Alzheimer's disease as described. Harkany T et al., Behav Brain Res. 1998 90(2):133-45. Harkany T et al., Prog Neuropsychopharmacol Biol Psychiatry. 1999 23(6):963-1008.
A-beta 25-35 was administered bilaterally into NBM of male Wistar rats in dose of 2 μg per each side. Since 16th day of A-beta 25-35 injection, rats were injected i.p. with 1 mg/kg or 50 mg/kg the compound of the formula (I) or saline (control) for 7 days singly a day. The effect of the compound of the formula (I) on cognitive functions was tested in a model of spontaneous alteration in Y-maze at next day from the day of the last injection. It is a suitable model for assessing memory impairments. Total number of visited arms and number of repeated visits to the same arm for 5 min was counted. […] Data are presented in table 2 as the number of visits mean±SD (n=8).

[3] = 1 mg/kg i.p. once a day for 7 days
[4] = 50 mg/kg i.p. once a day for 7 days
[5] = 1 mg/kg i.p. once a day for 7 days from day 16 after A-beta 25-35
[6] = 50 mg/kg i.p. once a day for 7 days from day 16 after A-beta 25-35

With `C[N+](C)(C)CCO.C[N+](C)(C)CCO.O=C([O-])CCC(=O)[O-]` [Compound of the formula (I), bis[2-hydroxyethyl-N,N,N-trimethylaminium]butanedioate] the “Latency, s Post-shock” value [1, 3] was 99.3 ± 24.5 s, the “Latency, s Pre-shock” value [1, 3] was 13.5 ± 4.3 s and the “Latency, s Post-shock” value [1, 4] was 53.3 ± 16.3 s. The “Latency, s Pre-shock” value [1, 4] was 27.7 ± 13.1 s, the “Effect on cognitive function as compared to the control” value ([1]; cognitive impairments induced by chronic cerebral ischemia, vs saline control) was “significantly enhanced cognitive function” and the “Number of visits Repeated (to the same arm)” value [2, 5] was 0.65 ± 0.24. For the same compound, the “Number of visits Total (visited arms)” value [2, 5] was 3.00 ± 0.41, the “Number of visits Repeated (to the same arm)” value [2, 6] was 0.75 ± 0.29 and the “Number of visits Total (visited arms)” value [2, 6] was 2.55 ± 0.33. The “Effect on cognitive function (memory) as compared to the control” value ([2]; cognitive function impaired by amyloid toxicity, vs saline control) was “significantly enhanced cognitive function (memory)”.
